Measured values taken from PubChem BioAssay (NCI).
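Dose response: 5 concentrations. Exposure: 48 h. Format: 96-well plates. Endpoint: linear interpolation; highest concentration if not reached. GI50 marks 50% less growth. TGI: concentration producing complete growth inhibition.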

Tests used:
Experiment in all cases: growth of human tumour cells (NCI), 48 h
[1] = test system: NCI-H226 lung
[2] = test system: K-562 leukemia
[3] = test system: SK-MEL-5 melanoma
[4] = test system: A549 NSCLC
[5] = test system: HT29 colon
[6] = test system: HS 578T breast
[7] = test system: COLO 205 colon
[8] = test system: UACC-62 melanoma
[9] = test system: MDA-MB-231 breast
[10] = test system: HOP-92 NSCLC

SMILES	TGI [1] [µM]	TGI [2] [µM]	TGI [3] [µM]	TGI [4] [µM]	TGI [5] [µM]	TGI [6] [µM]	TGI [7] [µM]	TGI [8] [µM]	TGI [9] [µM]	TGI [10] [µM]	GI50 [1] [µM]	GI50 [2] [µM]	GI50 [3] [µM]	GI50 [4] [µM]	GI50 [5] [µM]	GI50 [6] [µM]	GI50 [7] [µM]	GI50 [8] [µM]	GI50 [9] [µM]	GI50 [10] [µM]
CCOC(=O)N1CCNCCN(C(=O)OCC)CCNCC1	> 100	> 100	> 100	> 100	> 100	> 100	> 100	> 100	> 100	> 100										
COc1ccc(C2C(=O)c3ccc(OC)cc3OC2c2cccnc2)cc1 (stereo not given)	> 100	> 100	> 100	> 100	> 100	> 100	> 100	> 100	> 100	97.1										
CC(C)Oc1cccc(N2C(CCc3c[nH]c4ccc(Br)cc34)=NS(=O)(=O)c3cnccc32)c1	97.8	> 100	> 100	> 100	> 100	> 100	41.9	> 100	> 100	> 100										
CCNC(=S)N/N=C(/C)c1cccc(/C(C)=N\NC(=S)NCC)n1	7.39	26.3	5.52	> 82.9	46.2	> 96.6	> 23.5	27.2	> 84.2	24.6										
O=C1Nc2noc(=O)nc2NO1	> 200	> 200	> 200	> 200	> 200	> 200	> 200	> 200	> 200	> 200										
COc1cc2c(cc1O)NC(=O)[C@@H]1C[C@@H](O)CN1C2=O	> 100	> 100	> 100	> 100	> 100	> 100	> 100	> 100	> 100	> 100										
C/C(=N\NC(=S)NC(C)(C)C)c1nc2ncccc2[nH]1	13.9	> 100	14.1	43.4	> 100	> 30.2	> 31.6	46.7	> 100	42.9										
N#Cc1cc(F)cc(Oc2ccc(S(=O)(=O)C(F)F)c3c2CC(F)(F)[C@H]3O)c1	> 100	> 100	34.7	> 100	> 100	> 100	63.1	> 100	73.2	46.5	31.3	27.1	17.6	27.9	39.3	28.5	25.6	21.7	22.3	16
O=C(OCCN=c1c2ccccc2ccc2ccccc12)c1cc([N+](=O)[O-])cc([N+](=O)[O-])c1	> 100	> 100	> 100	> 100	> 100	> 100	> 100	> 100	> 100	> 100										
O=C(/C=C/c1ccccc1)c1cc(CN2CCOCC2)c(O)c(CN2CCOCC2)c1	64.9	36.2	26	33.2	> 100	> 100	23.6	39.5	32.7	26.9										
O=c1c2ccc(Cl)cc2oc2c(CSc3ccccc3)cccc12	> 100	> 100	> 92.1	> 100	> 100	> 100	> 100	> 83.3	> 100	> 74.9										
CC(C)OC(=O)C(NC(=O)C(CC(=O)OCc1ccccc1)NC(=O)OCc1ccccc1)NC(=O)C1C(C)(C)CCC1(C)C (stereo not given)	22.8	15.9	27.1	5.07	14.3	23.5	9.27	47.9	7.82	24.1										
Cc1ccc(C(=O)Nc2ccc(CP(=O)(O)O)cc2CP(=O)(O)O)cc1N	> 100	> 100	> 100	> 100	> 100	> 100	> 100	> 100	> 100	> 100										
O=c1[nH]c2c(Nc3c4ccccc4nc4ccccc34)c([N+](=O)[O-])c(Nc3c4ccccc4nc4ccccc34)c([N+](=O)[O-])c2[nH]1	6.3	11.7	4	3.56	3.11	7.12	5.02	3.32	4.92	4.74										
C[C@H]1CCC/C=C/[C@@H]2C[C@H](OC3OC(CO)C(O)C(O)C3O)C[C@H]2[C@H](O)/C=C/C(=O)O1 (stereo not given in full)	> 100	> 100	31.6	> 100	> 100	> 100	31.9	> 100	42.9	> 100										
COc1cc(C=O)cc(C=Nc2ccc(Br)cc2)c1O	8.19	> 100	21.1	> 100	> 100	5.26	36.3	50.1	37.8	39.6										
CCCCCCCCCCCC1=C(O)C(=O)C(CC2=C(O)C(=O)C(CCCCCCCCCCC)=C(O)C2=O)=C(O)C1=O	> 100	> 100	> 100	> 100	> 100	> 100	> 100	> 100	> 100	55.2										

SMILES	TGI [1] [µM]	TGI [2] [µM]	TGI [3] [µM]	TGI [4] [µM]	TGI [5] [µM]	TGI [6] [µM]	TGI [7] [µM]	TGI [8] [µM]	TGI [9] [µM]	TGI [10] [µM]	GI50 [1] [µM]	GI50 [2] [µM]	GI50 [3] [µM]	GI50 [4] [µM]	GI50 [5] [µM]	GI50 [6] [µM]	GI50 [7] [µM]	GI50 [8] [µM]	GI50 [9] [µM]	GI50 [10] [µM]
O=C(N/N=C/c1ccccc1)c1c(F)c(F)c(F)c(F)c1F	> 100	> 100	> 100	> 100	> 100	> 100	> 100	> 100	> 100	> 100										
COc1ccc(S(=O)(=O)NC(CCC(=O)NC(N)=O)C(=O)NC(N)=O)cc1 (stereo not given)	> 100	> 100	> 100	> 100	> 100	> 100	> 100	> 100	> 100	> 100										
COCc1cc2c(s1)C(=O)C1=C(C2=O)C2(C=C(Br)C(=O)C(Br)=C2)CCN1	26.7	9.32	5.62	19.4	12.9	30.6	12.4	3.08	15.2	15.1										
COc1ccc2oc(=O)c(-c3cc4c(c(C)n3)c(=O)oc3ccc(OC)cc34)cc2c1	> 100	> 100	> 100	> 100	> 100	83.5	> 100	> 100	> 100	> 100										
CCc1c(O)nc(Nc2nc3ccccc3[nH]2)[nH]c1=O	> 100	> 100	> 100	> 100	> 100	> 100	> 100	> 100	> 100	> 100										
OCCN1CCN(c2nc(N3CCCC3)c3nc(Cl)c(NCc4ccccc4)nc3n2)CC1	37.8	22	7.82	21.4	10.6	31	6.73	9.26	25	16.8										
CC(=O)CCC1(C(=O)OCC(C)C)CCCC1=O (stereo not given)	> 100	> 100	> 100	> 100	> 100	> 100	> 100	> 100	> 100	> 100										
O=C(Nc1cccc2ccccc12)c1cc2ccccc2oc1=O	54.4	> 100	> 100	> 100	> 100	> 100	> 100	> 100	58.1	> 100										
O=C(O)[C@H]1NC[C@H]2C(Br)=NO[C@@H]12	> 100	> 100	> 100	> 100	> 100	> 100	> 100	> 100	> 100	> 100										
Cc1n[nH]c(=O)n1-n1cccc1	> 100	> 100	> 100	> 100	> 100	> 100	> 100	> 100	> 100	> 100										
CC1(C)C(=O)/C(=C/c2ccccc2)C(C)(C)C1(C)C	> 100	> 100	> 100	> 100	> 100	> 100	> 100	> 100	> 100	> 100										
COc1cc2c(cc1O)C(Cc1ccc(OCc3ccccc3)c(OCc3ccccc3)c1)N(C(=O)NCCc1ccccc1)CC2 (stereo not given)	> 100	> 100	> 100	> 100	> 100	> 100	> 100	> 100	> 100	> 100										
COC(=O)CCC(C)[C@H]1CCC2C3CC[C@@H]4CC5(CC[C@]4(C)C3C[C@H](OC(C)=O)[C@@]21C)OOC1(CCCCC1)OO5 (stereo not given in full)	> 100	> 100	80.9	> 100	> 100	> 100	> 100	> 100	> 100	> 100										
CC1(C)CCC[C@@]2(C)C1CC[C@@]1(CO)O[C@H](C3=CC(=O)OC3O)C[C@H]12 (stereo not given in full)	35.4	63.9	20.9	> 86.1	30.6	38.4	23.2	15.3	36.1	38.2										
CC[C@]1(c2ccc3c(c2)OCO3)C=[N+]([O-])O[C@H](OC2CCCC2(c2ccccc2)c2ccccc2)[C@@H]1OC(C)=O (stereo not given in full)	22.7	> 100	3.54	11.4	3.78	> 100	5.07	4.64	> 21.7	76.1										
C[n+]1c2ccccc2n2c3ccccc3c(NCCCn3ccnc3)c(C#N)c21	9.11	> 26	13.1	32.2	37.9	6.78	4.4	17.6	9.18	> 20.2										
